Results published in article PMC11583597, “Brain uptake pharmacokinetics of albiglutide, dulaglutide, tirzepatide, and DA5-CH in the search for new treatments of Alzheimer’s and Parkinson’s diseases” (Tissue Barriers, 2023).

How the values were obtained:
[1] = In vivo stability of 125I/14C-IRAs in blood/serum (acid precipitation); set-up: species or system male CD-1 mice; conditions: mouse, iv
Experimental: (§1) We measured the stability of the radiolabeled IRAs in brain and blood. Following anesthetization, arterial blood and whole brain were taken at two time points (10 or 60 min) after iv injection of 3 × 10^5 cpm-1×10^6 cpm of ^125I/^14C-IRA in 0.2 ml of BSA/LR. The blood samples were allowed to clot, centrifuged at 3200 ×g for 10 min, and 50 μl of the separated serum was added to 250 μl of BSA-LR. Samples were combined with equal volume 30% TCA (300 μl), mixed, and then centrifuged for 10 min at 5400 ×g. Brains were homogenized in 800 μl of BSA-LR with a bead beater for 30 sec at 4800 rpm twice. Following centrifugation at 5400 ×g for 15 min, a portion of the resulting supernatant was added to an equal volume of 30% TCA, mixed, and then centrifuged at 5400 ×g for 10 min. The radioactivity in the resulting supernatant and pellet (Sup and Pel fractions) for serum and brain was calculated separately, and the percent of radioactivity in the precipitate was calculated using the following equation:(1) %AcidPrecip=100×Pel/Sup+Pel
(§2) To correct for degradation that might have occurred during the processing, ^125I/^14C-IRA was added to non-radioactive arterial whole blood or to whole brain and processed as above. The biological samples were corrected for degradation during processing by dividing their values by those for processing control (Pcon) values and multiplying by 100. This can sometimes result in a value greater than 100%.
(§3) Immediately after counting the radioactivity, the blood and brains from the 10 min and 6 h time points were processed as described in Section 2.5 for in vivo stability. For further comparison, data from the 1 h time point were taken from the original pharmacokinetic uptake study. The ^125I-IRA brain % acid precipitation (%AP) was divided by the ^125I-IRA serum %AP at each time point to calculate the %AP B/S ratio. This value was multiplied by the B/S ratio for each ^125I-IRA to correct for degradation over the 10 min, 1 h, or 6 h time periods. Corrected AP B/S ratios were then corrected for vascular space by subtracting the ^99mTc-Alb B/S ratio within each mouse for the 10 min and 6 h time points (AP corrected delta B/S ratio). For the 1 h time point, the average ^99mTc-Alb B/S ratio (10.03 μl/g) at 10 min across all ^125I-IRAs was used for correction. The AP corrected delta B/S ratio for each ^125I-IRA was then multiplied by the %Inj/ml within each mouse to calculate the AP corrected delta %Inj/g.

[2] = set-up: species or system male CD-1 mice; conditions: mouse, in vivo, iv
Experimental: Following anesthetization, the jugular vein and right carotid artery were exposed. Mice were given a jugular vein injection of 0.2 ml BSA-LR containing 3 × 10^5 cpm-1×10^6 cpm of an ^125I/^14C-labeled IRA and 5 × 10^5 cpm of ^99mTc-Alb. Blood samples were collected from the carotid artery at various time points from 1 to 60 min after iv injection (see Figure 1). Mice were then decapitated, and their brains were removed and weighed. After clotting, the arterial blood was centrifuged at 3200 ×g for 10 min. Levels of radioactivity in serum (50 μl) and brain were measured in a gamma counter for ^125I and ^99mTc for 3 min. After ^99mTc decay, ^14C-DA5-CH samples were solubilized with Solvable (Sigma), transferred to scintillation vials containing Ecoscint (National Diagnostics) and ^14C was measured in a beta counter. Sample injection checks were taken throughout the course of the study to calculate the mean injected cpm/mouse. To determine the rate of ^125I/^14C-IRA clearance from the serum, the results were expressed as the percentage of an injected dose in each ml of serum (%Inj/ml), which was calculated by dividing the cpm in a ml of serum (cpm/ml serum) by the cpm injected into the mouse (cpm/Inj):
(2) %Inj/ml=100×cpm/mlserum/meancpm/Inj
The log(%Inj/ml) was plotted against time to calculate the rate of clearance from the serum. To calculate the half-time clearance in minutes, the inverse slope […] of the curve for each IRA was multiplied by 0.301 (log10[2]). The blood and brain cpm data were used for the measurement of brain influx and initial volume of distribution in brain as described in Section 2.7.

[3] = set-up: species or system male CD-1 mice; conditions: mouse, in vivo, iv; remark: listed apart in the source
Experimental: Anesthetized mice were co-injected iv with 3 × 10^5 cpm-1×10^6 cpm ^125I/^14C-IRA and 5 × 10^5 cpm of ^99mTc-Alb in 0.2 ml BSA-LR with or without 1 μg of the non-radioactive IRA. Fifteen minutes after iv injection, blood was collected from the right carotid artery, and the whole brain was removed and weighed. Samples were counted for radioactivity. Results were expressed as delta B/S ratios in units of μl/g.

[4] = Octanol/buffer partition coefficient (lipid solubility); assay type: physicochemical; conditions: pH 7.5
Experimental: We measured the lipid solubility of the IRAs, using octanol and PB. Briefly, 1 × 10^5 counts per minute (cpm) of each ^125I/^14C-IRA were added to triplicate tubes containing equal volumes PB and octanol (Sigma-Aldrich). This solution was vigorously mixed for 1 min and centrifuged at 5500 ×g for 10 min to separate the two phases. Aliquots of 100 μl were taken in duplicate from each phase, and total radioactivity was counted in a gamma counter (Wizard2, Perkin-Elmer) or beta counter (TriCarb 3110TR, Perkin-Elmer). The ratio of the cpm in the octanol phase to the cpm in the buffer phase equates to the mean partition coefficient (Pcoeff) and indicates lipophilicity. The log value for the coefficient can be either greater than unity, indicative of a lipophilic compound, or less than unity, indicative of a hydrophilic compound.

[5] = In vivo stability of 125I/14C-IRAs in brain (acid precipitation); set-up: species or system male CD-1 mice; conditions: mouse, iv
Experimental: as §1, §2, §3

SMILES: CC[C@H](C)[C@H](NC(=O)[C@H](CC(C)C)NC(=O)[C@H](Cc1c[nH]c2ccccc12)NC(=O)[C@H](CCC(N)=O)NC(=O)[C@@H](NC(=O)[C@H](Cc1ccccc1)NC(=O)[C@H](C)NC(=O)[C@H](CCCCNC(=O)COCCOCCNC(=O)COCCOCCNC(=O)CC[C@H](NC(=O)CCCCCCCCCCCCCCCCCCC(=O)O)C(=O)O)NC(=O)[C@H](CCC(N)=O)NC(=O)[C@H](C)NC(=O)[C@@H](NC(=O)[C@H](CCCCN)NC(=O)[C@H](CC(=O)O)NC(=O)[C@H](CC(C)C)NC(=O)C(C)(C)NC(=O)[C@@H](NC(=O)[C@H](CO)NC(=O)[C@H](Cc1ccc(O)cc1)NC(=O)[C@H](CC(=O)O)NC(=O)[C@H](CO)NC(=O)[C@@H](NC(=O)[C@H](Cc1ccccc1)NC(=O)[C@@H](NC(=O)CNC(=O)[C@H](CCC(=O)O)NC(=O)C(C)(C)NC(=O)[C@@H](N)Cc1ccc(O)cc1)[C@@H](C)O)[C@@H](C)O)[C@@H](C)CC)[C@@H](C)CC)C(C)C)C(=O)N[C@@H](C)C(=O)NCC(=O)NCC(=O)N1CCC[C@H]1C(=O)N[C@@H](CO)C(=O)N[C@@H](CO)C(=O)NCC(=O)N[C@@H](C)C(=O)N1CCC[C@H]1C(=O)N1CCC[C@H]1C(=O)N1CCC[C@H]1C(=O)N[C@@H](CO)C(N)=O [Tirzepatide]
- Percentage of labeled IRA intact, Serum, 10 min [1]: 100.5 ± 0.0%
- Percentage of labeled IRA intact, Serum, 60 min [1]: 99.65 ± 0.1%
- Half-Time Serum Clearance (t1/2) [2]: 30.62 min
- Whole Brain delta brain/serum ratio, Without unlabeled IRA [3]: -0.16 ± 0.13 µL/g
- Lipid Solubility Partition Coefficient [4]: 0.1318 ± 0.0126
- Log Partition Coefficient (Log P) [4]: -0.884 ± 0.0405
- Percentage of labeled IRA intact, Whole Brain, 10 min [5]: 100.7 ± 0.0%
- Percentage of labeled IRA intact, Whole Brain, 60 min [5]: 99.73 ± 0.6%
